From publication PMC8175350, “Drug repurposing screens identify chemical entities for the development of COVID-19 interventions” (Nature Communications, 2021)
Where a name gives a salt, the structure may show the parent alone. Read-outs that look alike come from different tables or passages of the source.

Experiments:
HeLa-ACE2 cells [1] = assay: cells; format: cell-based, human; conditions: Homo sapiens, HeLa-ACE2; read-out: HeLa-ACE2 TOA cell count EC50 GeoMean
SARS-CoV-2 [2] = assay: microbe, parasite or virus in culture; format: cell-based; conditions: for Emax: Severe acute respiratory syndrome coronavirus 2, HeLa-ACE2, 24 h, curve plateau at infinite concentration, read-out: HeLa-ACE2 CoV-2 Sinf Average
HepG2 [3] = assay: HepG2 72 h CellTiter-Glo cytotoxicity; conditions: 72 h
[4] = HepG2 72 h CellTiter-Glo cytotoxicity; conditions: human, HepG2 cells
HeLa-ACE2 cells [5] = assay: Uninfected HeLa-ACE2 24 h live/dead cytotoxicity counter screen; format: cell-based, human; conditions: curve plateau at infinite concentration
[6] = as above; format: cell-based, human; conditions: human, uninfected HeLa-ACE2 cells, detail block; read-out: HeLa-ACE2 uninfected cytotoxicity CC50 GeoMean
SARS-CoV-2 [7] = assay: microbe, parasite or virus in culture; format: cell-based; conditions: for Emax: Severe acute respiratory syndrome coronavirus 2, HeLa-ACE2, 10 h, curve plateau at infinite concentration, read-out: HeLa-ACE2 TOA CoV-2 Sinf Average; for EC50: Severe acute respiratory syndrome coronavirus 2, HeLa-ACE2, detail block, read-out: HeLa-ACE2 TOA CoV-2 EC50 GeoMean
SARS-CoV-2 [8] = assay: microbe, parasite or virus in culture; format: cell-based; conditions: for Emax: Severe acute respiratory syndrome coronavirus 2, Calu-3, 48 h, read-out: Calu-3 CoV-2 Sinf Average; for EC50: Severe acute respiratory syndrome coronavirus 2, Calu-3, detail block, read-out: Calu-3 CoV-2 EC50 GeoMean
Calu-3 cells [9] = assay: Uninfected Calu-3 48 h Cell-Titer Glo cytotoxicity counter screen; conditions: curve plateau at infinite concentration
[10] = as above; conditions: human, uninfected Calu-3 cells, Calu-3 uninfected cytotoxicity CC50 GeoMean, detail block
HEK293T [11] = assay: HEK293T 72 h CellTiter-Glo cytotoxicity; conditions: 72 h
[12] = HEK293T 72 h CellTiter-Glo cytotoxicity; conditions: human, HEK293T cells
Calu-3 cells [13] = assay: cells; conditions: Homo sapiens; for EC50: Calu-3, read-out: Calu-3 cell count EC50 GeoMean, detail block; for Emax: Calu-3, 48 h, read-out: Calu-3 cell count Sinf Average
HeLa-ACE2 cells [14] = assay: cells; conditions: Homo sapiens; for EC50: HeLa-ACE2, read-out: HeLa-ACE2 cell count EC50 GeoMean, detail block
HEK293T [15] = conditions: human, 72 h
HepG2 [16] = conditions: human, 72 h
in vitro = conditions: human, Calu-3 uninfected cytotoxicity CC50 GeoMean
Calu-3 cells [17] = conditions: for Calu-3 uninfected cytotoxicity Sinf Average: human, 48 h
[18] = Severe acute respiratory syndrome coronavirus 2, HeLa-ACE2, detail block, read-out: HeLa-ACE2 CoV-2 EC50 GeoMean
[19] = TOA EC50 / HeLa-ACE2 SARS-CoV-2 EC50
[20] = curve plateau at infinite concentration
[21] = selectivity index, uninfected Calu-3 CC50 / Calu-3 SARS-CoV-2 EC50
[22] = selectivity index, uninfected HeLa-ACE2 CC50 / SARS-CoV-2 EC50

| Compound | EC50 (HeLa-ACE2 cells [1]) [µM] | Emax (SARS-CoV-2 [2]) [%] | HepG2 72-hour cytotoxicity Sinf Average (HepG2 [3]) [%] | CC50 at 72 h [4] [µM] | HeLa-ACE2 uninfected cytotoxicity Sinf Average (HeLa-ACE2 cells [5]) [%] | CC50 at 24 h [6] [µM] | TOA:HeLa-ACE2 EC50 Ratio (SARS-CoV-2 [7]) | Emax (SARS-CoV-2 [7]) [%] | EC50 (SARS-CoV-2 [7]) [µM] | EC50 (SARS-CoV-2 [8]) [µM] | Calu-3 uninfected cytotoxicity Sinf Average (Calu-3 cells [9]) [%] | CC50 at 48 h [10] [µM] | HEK293T 72-hour cytotoxicty Sinf Average (HEK293T [11]) [%] | CC50 at 72 h [12] [µM] | EC50 (Calu-3 cells [13]) [µM] | EC50 (HeLa-ACE2 cells [14]) [µM] | EC50 (SARS-CoV-2 [2]; [18]) [µM] | Emax (SARS-CoV-2 [8]; [20]) [%] | Calu-3 SI (SARS-CoV-2 [8]; [21]) | HeLa-ACE2 SI (SARS-CoV-2 [2]; [22]) | other results |
| --- | --- | --- | --- | --- | --- | --- | --- | --- | --- | --- | --- | --- | --- | --- | --- | --- | --- | --- | --- | --- | --- |
| COc1ccc2cc1Oc1ccc(cc1)C[C@H]1c3cc(c(OC)cc3CCN1C)Oc1c(OC)c(OC)cc3c1[C@H](C2)N(C)CC3 [Hanfangchin A] | > 9.59 | 100 | -105 | 2.28 | -99 | > 18.9 | 7.993 | 100 | > 9.41 | > 9.98 | -100 | 15.2 | -101 | 3.6 | > 9.98 | > 9.21 | – | – | – | – | HeLa-ACE2 SI (SARS-CoV-2 [2]): > 16.08; EC50 (SARS-CoV-2 [2]; Severe acute respiratory syndrome coronavirus 2, HeLa-ACE2, read-out: HeLa-ACE2 CoV-2 EC50 GeoMean, detail block): 1.18 µM; Calu-3 SI (SARS-CoV-2 [8]): 1.53; Emax (SARS-CoV-2 [8]): 87%; Emax (HeLa-ACE2 cells [14]; HeLa-ACE2, 24 h, read-out: HeLa-ACE2 cell count Sinf Average): 100% |
| COC(CNCC(C)C)COc1c(C)csc1C(=O)CCc1ccccc1 (stereo not drawn) [LG-6-101] | > 9.59 | 100 | – | – | -100 | > 35.6 | – | 100 | > 9.18 | > 9.98 | – | – | – | – | > 9.98 | > 9.59 | 3.46 | 83 | 2.91 | – | HEK293T 72-hour cytotoxicty Sinf Average (HEK293T [15]): -100%; HepG2 72-hour cytotoxicity Sinf Average (HepG2 [16]): -100%; CC50 at 48 h (in vitro): > 29.1 µM; TOA:HeLa-ACE2 EC50 Ratio (SARS-CoV-2 [7]; [19]): 2.655; uninfected Calu-3 CC50 (Calu-3 cells [17]): > 29.079 ×÷ 1.048 (n=3) μM; Calu-3 uninfected cytotoxicity Sinf Average (Calu-3 cells [17]): -100%; Emax (Calu-3 cells [13]): 100% |
| COC(=O)[C@H]1[C@H]2C[C@@H]3c4[nH]c5cc(OC)ccc5c4CCN3C[C@H]2C[C@@H](OC(=O)c2cc(OC)c(OC)c(OC)c2)[C@@H]1OC [Reserpine] | > 9.61 | 100 | -100 | 33 | -100 | > 36.4 | 0.542 | 100 | 2.99 | > 9.98 | -100 | > 28.5 | -100 | 11.7 | > 9.98 | > 9.6 | > 5.51 | 100 | 2.85 | > 6.60 | Emax (Calu-3 cells [13]): 100% |
| N#Cc1ccc2c(c1)[C@H]1CN(CCCCNC(=O)c3ccc(-c4ccccc4)cc3)C[C@@H]1CO2 [S-33084] | > 9.59 | 100 | – | – | -100 | > 24.8 | – | 100 | 3.93 | > 9.98 | – | – | – | – | > 9.98 | > 9.59 | 3.91 | – | 2.28 | > 6.34 | HEK293T 72-hour cytotoxicty Sinf Average (HEK293T [15]): -100%; HepG2 72-hour cytotoxicity Sinf Average (HepG2 [16]): -100%; CC50 at 48 h (in vitro): > 22.8 µM; TOA:HeLa-ACE2 EC50 Ratio (SARS-CoV-2 [7]; [19]): 1.005; uninfected Calu-3 CC50 (Calu-3 cells [17]): > 22.75 ×÷ 1.601 (n=3) μM; Calu-3 uninfected cytotoxicity Sinf Average (Calu-3 cells [17]): -100% |
| CC(CN(C)C)CN1c2ccccc2CCc2ccccc21 (stereo not drawn) [Trimipramine maleate] | > 9.59 | 99 | -100 | 18.8 | -100 | 21.3 | 2.576 | 100 | 5.42 | > 9.98 | -100 | > 29 | -102 | 12.8 | > 9.98 | > 9.59 | 2.11 | 100 | 2.90 | 10.11 | – |
